Measured values: patent US10800732B2, “Substituted malonamides and their use as antibacterial drugs” (National Taiwan University, priority 2015, dated 2020)
Values after ≈ are worked out from the molar mass of the structure shown. Values joined by “and” are separate entries in the source; they are usually repeats but may differ in a detail not shown here. Identical values can stand only once. Like-named read-outs stand apart in the source and are kept apart here.

Legend:
S. aureus ATCC 12598 = test: MIC, S. aureus ATCC 12598; type: cell-based, Staphylococcus aureus
MRSA ATCC 33592 = test: MIC, MRSA ATCC 33592; type: cell-based, methicillin-resistant Staphylococcus aureus; conditions: MRSA ATCC 33592
S. aureus NCTC 8325 [1] = type: cell-based, Staphylococcus aureus; conditions: 200-day exposure to sub-lethal concentrations
MRSA ATCC 49476 = test: MIC, MRSA ATCC 49476; type: cell-based, methicillin-resistant Staphylococcus aureus; conditions: MRSA ATCC 49476
[2] = tested on: Corynebacterium diphtheriae ATCC 11913; test: MIC, Corynebacterium diphtheriae; type: cell-based
MRSA SCCmec VT = test: MIC, MRSA SCCmec VT; type: cell-based, methicillin-resistant Staphylococcus aureus
[3] = tested on: Enterococcus faecalis ATCC 19433; test: MIC, Enterococcus faecalis; type: cell-based
[4] = tested on: S. lugdunesis (NTUH isolate); test: MIC, S. lugdunesis; type: cell-based
[5] = tested on: Streptococcus pyogenes ATCC 19615; test: MIC, Streptococcus pyogenes; type: cell-based
HEK-293 = test: Antiproliferative activity, HEK-293; type: cell-based, human; conditions: for IC50: HEK-293, antiproliferative
Experimental: (§1) In addition to the antibacterial activities, the cytotoxic effects of these malonate derivatives on human cancer cell lines were also assessed.

K-562 = test: Antiproliferative activity, K-562; type: cell-based, human; conditions: for IC50: K-562, antiproliferative
Experimental: as §1

S. aureus NCTC 8325 [6] = test: Time-kill kinetics; type: cell-based, Staphylococcus aureus; conditions: for reduction in CFU: 24-h treatment period; for bactericidal / bacteriostatic classification: killing over 99.9% of inoculum within 24 hours
[7] = tested on: S. saprophyticus (ATCC 15305); test: MIC, S. saprophyticus; type: cell-based
VR-E. faecium = test: MIC, VR-E. faecium; type: cell-based, vancomycin resistant Enterococcus faecium
[8] = tested on: S. epidermidis ATCC 12228; test: MIC, S. epidermidis ATCC 12228; type: cell-based; conditions: S. epidermidis ATCC 12228
[9] = tested on: Listeria monocytogenes ATCC 19113; test: MIC, Listeria monocytogenes; type: cell-based
[10] = tested on: Clostridium difficile R20291; test: MIC, Clostridium difficile R20291; type: cell-based
C. elegans = test: Toxic effects on E. coli (OP50)-fed C. elegans; type: in vivo, Caenorhabditis elegans; conditions: escalating doses in S-medium
Experimental: (§2) FIG. 2. SC5005 protects C. elegans from S. aureus infection. Effect of SC78 and SC5005 on the survival of MSSA- or MRSA-infected C. elegans was assessed. The glp-4(bn2) C. elegans were fed on E. coli (OP50), MSSA (ATCC 29213) or MRSA (ATCC 33592) followed by exposing to SC78 or SC5005 at concentrations of 2-, 4-, 8-folds of respective MIC in S-medium. The survival of worms was monitored daily till the end of the study. The survival of animals fed with E. coli (OP50) and receiving DMSO only was served as a control to show the normal life-span of C. elegans.
Meanwhile, the toxic effects of these agents on C. elegans were also assessed. E. coli (OP50)-fed worms were exposed to escalating doses of SC78 and SC5005 in S-medium followed by monitoring of their survival daily.

[11] = tested on: MSSA ATCC 29213 or MRSA ATCC 33592; test: Survival of MSSA- or MRSA-infected C. elegans; type: in vivo, Caenorhabditis elegans; conditions: 2- to 8-folds of MIC in S-medium, versus DMSO control
Experimental: as §2
Caenorhabditis elegans has been broadly used as a model host for the studies of human infectious diseases, including infections caused by S. aureus. To investigate whether SC78 and SC5005 can suppress the infection of S. aureus in C. elegans, worms were infected with MSSA ATCC 29213 or MRSA ATCC 33592 followed by exposing to individual drugs at concentrations of 2- to 8-folds of respective MIC in S-medium. Control groups were treated with DMSO at concentration equal to that of drug treated groups (final concentration, 0.1%).

[12] = tested on: Enterococcus faecium ATCC 35667; test: MIC, Enterococcus faecium ATCC 35667; type: cell-based
[13] = tested on: clinical isolated VISA strain; test: MIC, VISA; type: cell-based, vancomycin-intermediate Staphylococcus aureus; conditions: VISA, clinical isolate
VRSA (SJC1200) = test: MIC, VRSA; type: cell-based, vancomycin-resistant Staphylococcus aureus; conditions: VRSA (SJC1200)
[14] = tested on: Mycobacterium tuberculosis H37Ra; test: MIC, Mycobacterium tuberculosis; type: cell-based
Clinical isolated MRSAs = test: MIC90, one hundred clinical isolated MRSA strains; type: cell-based, methicillin-resistant Staphylococcus aureus; conditions: one hundred clinical isolated MRSA from NTUH, concentration that inhibits 90% of strains tested
[15] = tested on: Bacillus cereus ATCC 11778; test: MIC, Bacillus cereus; type: cell-based
S. aureus NCTC 8325 [16] = test: MIC, S. aureus NCTC 8325 (CLSI broth microdilution / agar dilution); type: cell-based, Staphylococcus aureus
[17] = tested on: Clostridium difficile 630; test: MIC, Clostridium difficile 630; type: cell-based
[18] = tested on: S. haemolyticus (ATCC 29970); test: MIC, S. haemolyticus; type: cell-based
[19] = tested on: S. intermedius (ATCC 29663); test: MIC, S. intermedius; type: cell-based
S. hominis (ATCC 27844) = test: MIC, S. hominis; type: cell-based
[20] = tested on: Bacillus subtilis BCRC 10255; test: MIC, Bacillus subtilis; type: cell-based
HT-29 = test: Antiproliferative activity, HT-29; type: cell-based, human; conditions: for IC50: HT-29, antiproliferative
Experimental: as §1

[21] = Staphylococcus aureus, read-out: MIC
[22] = Clostridioides difficile, read-out: MIC

`O=C(Nc1ccc(Cl)c(C(F)(F)F)c1)Nc1ccc(Cl)c(C(F)(F)F)c1` [SC78] was tested, and the MIC (S. aureus ATCC 12598; Staphylococcus aureus, ATCC12598, read-out: MIC) was 0.25 µg/mL (≈ 0.599 µM), the MIC (MRSA ATCC 33592; [21]) was 0.25 µg/mL (≈ 0.599 µM) and the “resistance after consecutive exposure” value (S. aureus NCTC 8325 [1]) was “no resistance was observed”. It also gave an MIC (MRSA ATCC 49476; [21]) of 25 µg/mL (≈ 59.9 µM), an MIC ([2]; ATCC11913, read-out: MIC) of 0.25 µg/mL (≈ 0.599 µM) and an MIC (MRSA SCCmec VT; Staphylococcus aureus, MRSA SCCmec VT, read-out: MIC) of 0.25 µg/mL (≈ 0.599 µM). The MIC ([3]; ATCC19433, read-out: MIC) was 0.25 µg/mL (≈ 0.599 µM), the MIC ([4]; read-out: MIC) was 0.25 µg/mL (≈ 0.599 µM) and the MIC ([5]; ATCC19615, read-out: MIC) was 0.25 µg/mL (≈ 0.599 µM). For the same molecule, the IC50 (HEK-293; Homo sapiens, HEK293, read-out: IC50) was 1.13 µg/mL (≈ 2.71 µM), the Selectivity ratio (HEK-293; IC50 (HEK-293)/MIC against S. aureus) was 4.52 and the IC50 (K-562; Homo sapiens, K562, read-out: IC50) was 4.73 µg/mL (≈ 11.3 µM). The Selectivity ratio (K-562; IC50 (K-562)/MIC against S. aureus) was 18.92, the “reduction in CFU” value (S. aureus NCTC 8325 [6]; 8-folds of MIC) was “over 99.9%” and the “bactericidal / bacteriostatic classification” value (S. aureus NCTC 8325 [6]) was “bactericidal”. For the same molecule, the MIC ([7]; Staphylococcus saprophyticus, ATCC15305, read-out: MIC) was 0.25 µg/mL (≈ 0.599 µM), the MIC (VR-E. faecium; Enterococcus faecium, read-out: MIC) was 0.25 µg/mL (≈ 0.599 µM) and the MIC ([8]; Staphylococcus epidermidis, ATCC12228, read-out: MIC) was 0.25 µg/mL (≈ 0.599 µM). For the same molecule, the MIC ([9]; ATCC19113, read-out: MIC) was 0.0625 µg/mL (≈ 0.15 µM), the MIC [10, 22] was 0.25 µg/mL (≈ 0.599 µM) and the “survival of worms fed with OP50 (toxicity)” value (C. elegans) was “significantly decreased”. For the same molecule, the “survival of MSSA- or MRSA-infected worms” value [11] was “no significant difference was observed in the survival”, the MIC ([12]; ATCC35667, read-out: MIC) was 0.25 µg/mL (≈ 0.599 µM) and the MIC [13, 21] was 0.25 µg/mL (≈ 0.599 µM). The MIC (VRSA (SJC1200); [21]) was 0.25 µg/mL (≈ 0.599 µM), the MIC ([14]; read-out: MIC) was 1 µg/mL (≈ 2.4 µM) and the MIC90 (Clinical isolated MRSAs; Staphylococcus aureus, read-out: MIC90) was 0.25 µg/mL (≈ 0.599 µM). For the same molecule, the MIC ([15]; ATCC11778, read-out: MIC) was 0.25 µg/mL (≈ 0.599 µM), the MIC (S. aureus NCTC 8325 [16]; S. aureus (NCTC 8325), Table 3) was 0.25 µg/mL (≈ 0.599 µM) and the MIC (S. aureus NCTC 8325 [16]; S. aureus NCTC 8325, Table 2) was 0.25 µg/mL (≈ 0.599 µM). For the same molecule, the MIC (S. aureus NCTC 8325 [16]; Staphylococcus aureus, NCTC8325, S. aureus NCTC 8325, read-out: MIC) was 0.25 µg/mL (≈ 0.599 µM), the MIC [17, 22] was 0.5 µg/mL (≈ 1.2 µM) and the MIC ([18]; Staphylococcus haemolyticus, ATCC29970, read-out: MIC) was 0.5 µg/mL (≈ 1.2 µM). The MIC ([19]; read-out: MIC) was 1 µg/mL (≈ 2.4 µM), the MIC (S. hominis (ATCC 27844); Staphylococcus hominis, ATCC27844, read-out: MIC) was 0.25 µg/mL (≈ 0.599 µM) and the MIC ([20]; BCRC10255, read-out: MIC) was 0.25 µg/mL (≈ 0.599 µM). The IC50 (HT-29; Homo sapiens, read-out: IC50) was 4.51 µg/mL (≈ 10.8 µM) and the Selectivity ratio (HT-29; IC50 (HT-29)/MIC against S. aureus) was 18.04.

In the case of `O=C(Nc1ccc(Cl)c(C(F)(F)F)c1)C(CCCl)C(=O)Nc1ccc(Cl)c(C(F)(F)F)c1` [SC5005], the MIC (S. aureus ATCC 12598) was 0.5 µg/mL (≈ 0.958 µM), the MIC (MRSA ATCC 33592) was 0.5 µg/mL (≈ 0.958 µM) and the MIC (MRSA ATCC 33592; Table 6) was 0.5 µg/mL (≈ 0.958 µM). For the same molecule, the “resistance after consecutive exposure” value (S. aureus NCTC 8325 [1]) was “no resistance was observed”, the MIC (MRSA ATCC 49476) was 0.5 µg/mL (≈ 0.958 µM) and the MIC [2] was 0.5 µg/mL (≈ 0.958 µM). The MIC (MRSA SCCmec VT; MRSA SCCmec VT) was 0.5 µg/mL (≈ 0.958 µM), the MIC (MRSA SCCmec VT; SCCmec VT, Table 6) was 0.5 µg/mL (≈ 0.958 µM) and the MIC [3] was 0.5 µg/mL (≈ 0.958 µM). For the same molecule, the MIC [4] was 0.5 µg/mL (≈ 0.958 µM), the MIC [5] was 0.5 µg/mL (≈ 0.958 µM) and the IC50 (HEK-293) was 16.79 µg/mL (≈ 32.2 µM). The IC50 (K-562) was 20.23 µg/mL (≈ 38.8 µM), the “reduction in CFU” value (S. aureus NCTC 8325 [6]; 4-folds of MIC) was 99.91% and the “reduction in CFU” value (S. aureus NCTC 8325 [6]; 8-folds of MIC) was 99.95%. The “bactericidal / bacteriostatic classification” value (S. aureus NCTC 8325 [6]) was “bactericidal”, the MIC [7] was 0.5 µg/mL (≈ 0.958 µM) and the MIC (VR-E. faecium) was 0.5 µg/mL (≈ 0.958 µM). For the same molecule, the MIC [8] was 0.5 µg/mL (≈ 0.958 µM), the MIC [9] was 0.125 µg/mL (≈ 0.24 µM) and the MIC [10] was 0.5 µg/mL (≈ 0.958 µM). The “survival of worms fed with OP50 (toxicity)” value (C. elegans) was “didn't affect the survival”, the “survival of MSSA- or MRSA-infected worms” value [11] was “significant increase in the mean survival” and the MIC [12] was 0.5 µg/mL (≈ 0.958 µM). For the same molecule, the MIC [13] was 0.5 µg/mL (≈ 0.958 µM), the MIC (VRSA (SJC1200)) was 0.5 µg/mL (≈ 0.958 µM) and the MIC [14] was 16 µg/mL (≈ 30.7 µM). For the same molecule, the MIC90 (Clinical isolated MRSAs) was 0.5 mg/L and 0.5^b mg/L, the MIC [15] was 0.5 µg/mL (≈ 0.958 µM) and the MIC (S. aureus NCTC 8325 [16]; MSSA NCTC 8325, Table 6) was 0.5 µg/mL (≈ 0.958 µM). For the same molecule, the MIC (S. aureus NCTC 8325 [16]; S. aureus (NCTC 8325), Table 3) was 0.5 µg/mL (≈ 0.958 µM), the MIC (S. aureus NCTC 8325 [16]; S. aureus NCTC 8325) was 0.5 µg/mL (≈ 0.958 µM) and the MIC (S. aureus NCTC 8325 [16]; S. aureus NCTC 8325, Table 2) was 0.5 µg/mL (≈ 0.958 µM). The MIC [17] was 0.5 µg/mL (≈ 0.958 µM), the MIC [18] was 1 µg/mL (≈ 1.92 µM) and the MIC [19] was 1 µg/mL (≈ 1.92 µM). The MIC (S. hominis (ATCC 27844)) was 0.25 µg/mL (≈ 0.479 µM), the MIC [20] was 0.5 µg/mL (≈ 0.958 µM) and the IC50 (HT-29) was 14.56 µg/mL (≈ 27.9 µM).
